Earlier results in patent US6713504B2, “Antifungal molecule 2-(3,4-dimethyl-2,5-dihydro-1H-pyrrol-2-yl)-1-methylethyl pentanoate” (Council of Scientific & Industrial Research, priority 2002, dated 2004).

Settings: amphotericin B and its liposomal derivatives; reported by Zager 2000; cited from earlier work

C[C@@H]1[C@H](O)[C@@H](C)/C=C/C=C/C=C/C=C/C=C/C=C/C=C/[C@H](O[C@@H]2O[C@H](C)[C@@H](O)[C@H](N)[C@@H]2O)C[C@@H]2O[C@](O)(C[C@@H](O)C[C@@H](O)[C@H](O)CC[C@@H](O)C[C@@H](O)CC(=O)O[C@H]1C)C[C@H](O)[C@H]2C(=O)O [amphotericin B]
CT50: 4.0 to 64.0 µg/mL
